ChEMBL document CHEMBL3400143, “Discovery and hit-to-lead optimization of 2,6-diaminopyrimidine inhibitors of interleukin-1 receptor-associated kinase 4” (Bioorg Med Chem Lett, 2015)
The source made the active and inactive calls. The rule behind the calls is not given here.

Key:
[1] = target: Receptor-type tyrosine-protein kinase FLT3 (Homo sapiens) (UniProt P36888); assay: Inhibition of FLT3 (unknown origin)
[2] = target: High affinity nerve growth factor receptor (Homo sapiens) (UniProt P04629); assay: Inhibition of TRKA (unknown origin)
[3] = target: Dual specificity protein kinase CLK4 (Homo sapiens) (UniProt Q9HAZ1); assay: Inhibition of CLK4 (unknown origin)
[4] = target: NT-3 growth factor receptor (Homo sapiens) (UniProt Q16288); assay: Inhibition of TRKC (unknown origin)
[5] = target: Mitogen-activated protein kinase kinase kinase kinase 4 (Homo sapiens) (UniProt O95819); assay: Inhibition of MAP4K4 (unknown origin)
[6] = target: BDNF/NT-3 growth factors receptor (Homo sapiens) (UniProt Q16620); assay: Inhibition of TRKB (unknown origin)
[7] = target: T1, Interleukin-1 receptor-associated kinase 4 (Homo sapiens, UniProt Q9NWZ3); assay: Inhibition of N-terminal GST tagged human recombinant full-length IRAK4 expressed in Sf9 insect cells assessed as reduction in substrate phosphorylation using RP7030 peptide substrate and ATP incubated for 30 mins fluorescence polarization assay
T1 sequence (Q9NWZ3 whole entry): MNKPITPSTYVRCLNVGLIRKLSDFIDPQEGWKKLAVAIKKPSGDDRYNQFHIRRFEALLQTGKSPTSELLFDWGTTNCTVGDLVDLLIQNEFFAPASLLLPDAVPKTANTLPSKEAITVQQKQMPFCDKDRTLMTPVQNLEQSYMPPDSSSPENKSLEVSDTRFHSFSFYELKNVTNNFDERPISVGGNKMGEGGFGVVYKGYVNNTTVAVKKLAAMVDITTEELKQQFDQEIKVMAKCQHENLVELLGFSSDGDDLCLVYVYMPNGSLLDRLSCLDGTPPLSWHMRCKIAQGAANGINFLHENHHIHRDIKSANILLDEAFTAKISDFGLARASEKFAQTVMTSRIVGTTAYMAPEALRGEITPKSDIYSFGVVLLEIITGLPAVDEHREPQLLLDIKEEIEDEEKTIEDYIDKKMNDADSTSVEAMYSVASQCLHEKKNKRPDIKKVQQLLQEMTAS

Chain of High affinity nerve growth factor receptor (Homo sapiens) (P04629 33-796 limits assumed): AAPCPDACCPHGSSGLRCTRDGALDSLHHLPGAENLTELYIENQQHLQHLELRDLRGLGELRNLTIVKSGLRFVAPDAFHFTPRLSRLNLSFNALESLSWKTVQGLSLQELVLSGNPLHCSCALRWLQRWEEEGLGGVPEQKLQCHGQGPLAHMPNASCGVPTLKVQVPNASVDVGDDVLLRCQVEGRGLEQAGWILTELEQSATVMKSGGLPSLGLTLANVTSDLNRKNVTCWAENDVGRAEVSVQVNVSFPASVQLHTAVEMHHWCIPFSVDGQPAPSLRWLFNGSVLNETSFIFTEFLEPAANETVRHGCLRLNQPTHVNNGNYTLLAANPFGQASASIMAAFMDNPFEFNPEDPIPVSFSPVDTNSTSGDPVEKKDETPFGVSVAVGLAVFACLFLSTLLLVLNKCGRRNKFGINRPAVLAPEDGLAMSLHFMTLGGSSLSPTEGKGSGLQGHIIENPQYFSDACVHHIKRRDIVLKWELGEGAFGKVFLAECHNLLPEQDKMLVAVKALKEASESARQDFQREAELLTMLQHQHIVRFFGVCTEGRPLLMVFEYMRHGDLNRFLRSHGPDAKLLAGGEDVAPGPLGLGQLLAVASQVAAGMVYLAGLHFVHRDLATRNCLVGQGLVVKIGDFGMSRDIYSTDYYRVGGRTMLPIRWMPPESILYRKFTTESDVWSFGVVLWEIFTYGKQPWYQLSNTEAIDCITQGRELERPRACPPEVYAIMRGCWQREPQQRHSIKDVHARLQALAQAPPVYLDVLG
Chain of BDNF/NT-3 growth factors receptor (Homo sapiens) (Q16620 32-822 limits assumed): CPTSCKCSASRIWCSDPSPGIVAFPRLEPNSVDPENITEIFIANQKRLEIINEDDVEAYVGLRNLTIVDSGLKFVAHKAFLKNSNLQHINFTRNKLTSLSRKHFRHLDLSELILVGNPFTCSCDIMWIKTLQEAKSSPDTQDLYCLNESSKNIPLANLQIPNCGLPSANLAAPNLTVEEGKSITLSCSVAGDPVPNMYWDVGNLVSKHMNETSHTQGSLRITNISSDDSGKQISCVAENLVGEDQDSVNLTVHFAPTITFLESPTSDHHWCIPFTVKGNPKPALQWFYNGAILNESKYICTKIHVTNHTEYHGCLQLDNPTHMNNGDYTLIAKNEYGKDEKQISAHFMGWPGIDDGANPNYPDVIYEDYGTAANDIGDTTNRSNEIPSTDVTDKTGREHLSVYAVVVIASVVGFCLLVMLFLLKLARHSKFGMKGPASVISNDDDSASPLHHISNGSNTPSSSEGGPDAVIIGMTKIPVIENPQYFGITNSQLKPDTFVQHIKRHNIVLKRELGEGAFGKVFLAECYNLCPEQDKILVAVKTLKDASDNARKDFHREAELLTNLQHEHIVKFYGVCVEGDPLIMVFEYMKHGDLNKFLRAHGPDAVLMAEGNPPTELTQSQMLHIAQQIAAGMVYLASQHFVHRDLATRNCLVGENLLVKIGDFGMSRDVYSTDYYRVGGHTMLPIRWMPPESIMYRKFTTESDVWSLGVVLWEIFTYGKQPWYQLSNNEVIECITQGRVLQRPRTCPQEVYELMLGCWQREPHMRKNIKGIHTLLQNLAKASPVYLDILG
Chain of Dual specificity protein kinase CLK4 (Homo sapiens) (Q9HAZ1 whole entry, looked up): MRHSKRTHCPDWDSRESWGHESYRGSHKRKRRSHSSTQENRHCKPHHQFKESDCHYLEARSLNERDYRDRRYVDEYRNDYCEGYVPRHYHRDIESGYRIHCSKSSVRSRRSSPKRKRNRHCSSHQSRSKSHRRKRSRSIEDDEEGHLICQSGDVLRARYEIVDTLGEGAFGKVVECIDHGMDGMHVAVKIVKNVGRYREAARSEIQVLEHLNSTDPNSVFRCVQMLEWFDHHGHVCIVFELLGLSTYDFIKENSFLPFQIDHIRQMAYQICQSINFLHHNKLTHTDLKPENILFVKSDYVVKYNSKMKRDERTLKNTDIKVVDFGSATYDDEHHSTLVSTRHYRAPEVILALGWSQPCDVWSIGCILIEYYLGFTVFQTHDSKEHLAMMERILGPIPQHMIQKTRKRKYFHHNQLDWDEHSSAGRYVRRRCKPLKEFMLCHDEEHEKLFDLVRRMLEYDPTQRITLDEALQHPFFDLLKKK
Chain of NT-3 growth factor receptor (Homo sapiens) (Q16288 32-839 limits assumed): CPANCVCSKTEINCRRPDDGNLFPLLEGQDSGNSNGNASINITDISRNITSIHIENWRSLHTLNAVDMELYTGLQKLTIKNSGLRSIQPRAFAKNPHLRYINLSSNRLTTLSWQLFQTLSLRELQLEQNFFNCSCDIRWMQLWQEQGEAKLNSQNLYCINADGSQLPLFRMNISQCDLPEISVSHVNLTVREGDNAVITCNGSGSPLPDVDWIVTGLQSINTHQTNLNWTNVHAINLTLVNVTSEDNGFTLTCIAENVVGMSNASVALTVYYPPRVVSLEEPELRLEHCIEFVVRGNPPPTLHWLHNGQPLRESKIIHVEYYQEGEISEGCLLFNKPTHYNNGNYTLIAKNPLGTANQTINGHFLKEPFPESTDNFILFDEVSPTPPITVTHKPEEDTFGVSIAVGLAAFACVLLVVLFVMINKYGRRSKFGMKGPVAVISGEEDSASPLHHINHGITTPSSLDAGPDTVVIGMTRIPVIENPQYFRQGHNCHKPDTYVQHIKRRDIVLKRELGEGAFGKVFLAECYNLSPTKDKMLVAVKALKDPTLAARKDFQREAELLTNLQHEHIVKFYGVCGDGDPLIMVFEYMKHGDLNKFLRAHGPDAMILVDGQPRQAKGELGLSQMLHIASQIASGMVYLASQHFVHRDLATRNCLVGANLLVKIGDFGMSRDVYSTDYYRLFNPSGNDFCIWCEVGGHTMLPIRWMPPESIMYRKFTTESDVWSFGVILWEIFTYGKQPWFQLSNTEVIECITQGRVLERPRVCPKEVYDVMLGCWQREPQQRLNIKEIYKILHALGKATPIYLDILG
Chain of Mitogen-activated protein kinase kinase kinase kinase 4 (Homo sapiens) (O95819 2-1239 limits assumed): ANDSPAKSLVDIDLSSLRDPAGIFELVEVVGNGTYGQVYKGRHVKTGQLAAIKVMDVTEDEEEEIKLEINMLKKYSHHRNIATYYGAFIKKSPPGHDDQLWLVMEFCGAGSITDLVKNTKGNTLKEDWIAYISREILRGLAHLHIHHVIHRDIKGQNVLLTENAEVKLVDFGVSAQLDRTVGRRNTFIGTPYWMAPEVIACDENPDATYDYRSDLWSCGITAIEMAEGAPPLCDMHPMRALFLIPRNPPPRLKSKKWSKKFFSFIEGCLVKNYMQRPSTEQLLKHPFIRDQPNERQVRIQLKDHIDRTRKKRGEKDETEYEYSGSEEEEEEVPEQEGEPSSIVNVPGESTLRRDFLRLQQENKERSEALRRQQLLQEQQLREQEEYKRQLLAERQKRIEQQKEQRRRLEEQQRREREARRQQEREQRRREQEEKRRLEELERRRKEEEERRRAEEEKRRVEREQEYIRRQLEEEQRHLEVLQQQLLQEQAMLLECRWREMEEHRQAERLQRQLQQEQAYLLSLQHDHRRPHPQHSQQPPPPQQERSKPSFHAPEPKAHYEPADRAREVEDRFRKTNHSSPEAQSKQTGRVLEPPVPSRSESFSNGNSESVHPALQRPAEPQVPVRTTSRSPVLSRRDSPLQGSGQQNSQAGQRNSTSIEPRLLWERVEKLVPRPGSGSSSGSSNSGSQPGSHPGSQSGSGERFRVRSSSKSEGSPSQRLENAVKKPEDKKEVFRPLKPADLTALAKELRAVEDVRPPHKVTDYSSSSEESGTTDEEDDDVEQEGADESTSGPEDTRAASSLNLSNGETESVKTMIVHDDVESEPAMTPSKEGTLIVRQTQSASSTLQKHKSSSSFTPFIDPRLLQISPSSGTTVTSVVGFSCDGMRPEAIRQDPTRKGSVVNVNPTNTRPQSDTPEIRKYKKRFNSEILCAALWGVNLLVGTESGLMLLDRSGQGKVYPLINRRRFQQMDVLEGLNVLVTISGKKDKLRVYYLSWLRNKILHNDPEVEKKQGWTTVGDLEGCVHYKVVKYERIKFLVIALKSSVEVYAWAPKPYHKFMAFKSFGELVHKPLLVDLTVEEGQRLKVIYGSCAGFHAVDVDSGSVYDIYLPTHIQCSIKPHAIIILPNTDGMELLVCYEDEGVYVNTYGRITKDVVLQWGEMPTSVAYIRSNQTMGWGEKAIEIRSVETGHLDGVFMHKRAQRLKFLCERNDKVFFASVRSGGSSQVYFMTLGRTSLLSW
Chain of Receptor-type tyrosine-protein kinase FLT3 (Homo sapiens) (P36888 whole entry): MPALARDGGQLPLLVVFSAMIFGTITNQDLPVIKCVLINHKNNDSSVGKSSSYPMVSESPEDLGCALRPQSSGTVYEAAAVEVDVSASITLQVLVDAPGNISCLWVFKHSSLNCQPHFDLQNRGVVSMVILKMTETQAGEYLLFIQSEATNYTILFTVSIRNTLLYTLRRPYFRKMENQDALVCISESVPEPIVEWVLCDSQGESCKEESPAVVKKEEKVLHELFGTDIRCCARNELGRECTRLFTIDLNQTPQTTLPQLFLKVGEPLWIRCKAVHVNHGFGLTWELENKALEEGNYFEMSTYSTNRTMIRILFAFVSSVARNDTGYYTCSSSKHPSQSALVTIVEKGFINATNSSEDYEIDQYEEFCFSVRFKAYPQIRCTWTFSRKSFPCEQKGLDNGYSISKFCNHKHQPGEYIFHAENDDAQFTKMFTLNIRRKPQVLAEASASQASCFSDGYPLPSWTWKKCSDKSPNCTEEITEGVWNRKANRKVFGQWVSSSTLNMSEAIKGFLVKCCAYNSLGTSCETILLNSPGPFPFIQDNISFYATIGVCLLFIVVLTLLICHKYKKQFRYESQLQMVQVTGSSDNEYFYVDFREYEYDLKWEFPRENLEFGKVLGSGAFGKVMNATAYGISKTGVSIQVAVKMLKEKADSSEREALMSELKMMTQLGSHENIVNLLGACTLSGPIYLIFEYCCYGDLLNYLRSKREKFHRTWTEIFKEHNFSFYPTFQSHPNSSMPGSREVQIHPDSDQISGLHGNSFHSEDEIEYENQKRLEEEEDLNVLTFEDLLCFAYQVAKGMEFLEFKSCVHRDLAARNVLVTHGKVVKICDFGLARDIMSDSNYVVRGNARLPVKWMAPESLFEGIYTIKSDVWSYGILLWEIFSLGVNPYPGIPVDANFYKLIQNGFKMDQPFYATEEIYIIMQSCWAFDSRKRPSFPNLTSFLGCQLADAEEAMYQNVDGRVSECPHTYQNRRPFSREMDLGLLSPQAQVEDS

Row | inhibition [1] | inhibition [2] | inhibition [3] | inhibition [4] | inhibition [5] | inhibition [6] | IC50 [7] [µM] | SMILES
1 | Active | Active | Active | Active | Active | Active | 0.83 | Nc1ncc(-c2ccccn2)c(N[C@@H]2C[C@H](CO)[C@@H](O)[C@H]2O)n1
2 | Active | Active | Active | Active | Active | Active | > 20 | CCCNc1nc(C)c(-c2nc3ccccc3s2)c(N[C@@H]2CC[C@@H](O)[C@H]2O)n1 (racemic)
3 | Active | Active | Active | Active | Active | Active | 42 | OC[C@H]1C[C@@H](Nc2nc(Nc3ccccc3)ncc2-c2nc3ccccc3s2)[C@H](O)[C@@H]1O
4 | Active | Active | Active | Active | Active | Active | 1 | Cc1cc(Nc2ncc(-c3nc4ccccc4s3)c(N[C@@H]3C[C@H](CO)[C@@H](O)[C@H]3O)n2)ccn1
5 | Active | Active | Active | Active | Active | Active | > 20 | CCCNc1nc(C)c(-c2nc3ccccc3s2)c(N2CCOCC2)n1
6 | Active | Active | Active | Active | Active | Active | 0.403 | OC[C@H]1C[C@@H](Nc2nc(NC3CCC3)ncc2-c2nc3ccccc3s2)[C@H](O)[C@@H]1O

Continued, molecule first:

Row | SMILES | inhibition [1] | inhibition [2] | inhibition [3] | inhibition [4] | inhibition [5] | inhibition [6] | IC50 [7] [µM]
7 | Nc1ncc(-c2nc3ccccc3o2)c(N[C@@H]2C[C@H](CO)[C@@H](O)[C@H]2O)n1 | Active | Active | Active | Active | Active | Active | –
8 | Nc1nc(N[C@@H]2C[C@H](CO)[C@@H](O)[C@H]2O)c(-c2nc3ccccc3s2)c(C(F)(F)F)n1 | Active | Active | Active | Active | Active | Active | > 20
9 | Nc1ncc(-c2nc3cnccc3s2)c(N[C@@H]2C[C@H](CO)[C@@H](O)[C@H]2O)n1 | Active | Active | Active | Active | Active | Active | –
10 | Cn1c(-c2cnc(N)nc2N[C@@H]2C[C@H](CO)[C@@H](O)[C@H]2O)nc2ccccc21 | Active | Active | Active | Active | Active | Active | > 20
11 | Nc1ncc(-c2nc3ccncc3s2)c(N[C@@H]2C[C@H](CO)[C@@H](O)[C@H]2O)n1 | Active | Active | Active | Active | Active | Active | –
12 | Nc1ncc(-c2nc(-c3ccccc3)cs2)c(N[C@@H]2C[C@H](CO)[C@@H](O)[C@H]2O)n1 | Active | Active | Active | Active | Active | Active | –
13 | Nc1ncc(-c2ccc3ccccc3n2)c(N[C@@H]2C[C@H](CO)[C@@H](O)[C@H]2O)n1 | Active | Active | Active | Active | Active | Active | –
